Structures are written as SMILES.

Experimental findings from publication PMC12169669, “Regio- and Stereoselective Synthesis of Nitro-fatty Acids as NRF2 Pathway Activators Working under Ambient or Hypoxic Conditions” (Journal of Medicinal Chemistry, 2025) are described below.

This data set is described as follows: Cytotoxicity assay (sulforhodamine B, SRB). Type of data set: cell-based. The settings on record: mouse, mouse embryonic fibroblasts (MEFs; STO). The procedure:
For cytotoxicity experiments, mouse embryonic fibroblasts (MEFs; STO, 86032003, Sigma-Aldrich) were cultured in DMEM (41966-029, Thermo Fisher Scientific) + 5% FBS and were seeded at 10,000 cells per well in a 96-well plate and allowed to adhere for 8 h under atmospheric conditions. Plates were then placed in incubators with the specified oxygen concentrations (21%, 4%, or 1%) and incubated overnight. The following day, the medium was replaced with fresh medium (+5% FBS) adjusted to match the target oxygen concentrations and containing the test compounds (1–100 μM). After 24 h of incubation, adherent cells were stained using a modified sulforhodamine B (SRB) assay as described in. SRB was obtained from Sigma-Aldrich (S1402). Briefly, the medium was aspirated, and cells were fixed with 10% cold trichloroacetic acid. After washing twice with distilled water, the cells were stained with 0.1% SRB dissolved in 1% acetic acid. The cells were then washed 3–4 times with 1% acetic acid and allowed to dry. The stain was solubilized with 10 mM unbuffered TRIS base, and absorbance was measured at 540 nm (Infinite M200 Pro, Tecan, Austria). The cell viability of treated samples was calculated as a percentage of nontreated controls, and IC50 values were determined (see Statistics). According to the IC50 values, a nontoxic 2 μM concentration of NO2FAs was used in further in vitro experiments. For detailed results, see Supporting Information Figure S1 and Table S3. Values are presented as arithmetic means ± standard deviations (SD), unless otherwise specified. Half-maximal inhibitory concentration (IC50) values were calculated using four-parameter logistic regression (dose vs response). For Western blot analyses, one-way ANOVA with Dunnett’s multiple comparisons test was performed against control samples. The significance level was set at p < 0.05. Statistical analyses were conducted using GraphPad Prism v10.4 (GraphPad Software, www.graphpad.com). Statistical methods and the number of experiments are indicated in the figure legends. page 9: Supporting information S9 Cytotoxicity of tested NO2FA derivatives (Figure S1) 1 10 100 0 50 100 150 21% O2 Concentration (µM) % of control 1 10 100 0 50 100 150 4% O2 Concentration (µM) % of control 1 10 100 0 50 100 150 1% O2 Concentration (µM) % of control 10-NO2OA 9-NO2OA 10-NO2LA 9-NO2cLA 10-NO2SA A B C Figure S 1. Cytotoxicity of tested NO2FA derivatives. Mouse embryonic fibroblasts (MEFs) were cultured under varying oxygen conditions (21, 4, and 1%) and treated for 24 hours with the tested NO₂FAs, after which adherent cells were stained with sulforhodamine B. Results are presented as a percentage of control cells across different oxygen culture conditions (A–C). IC₅₀ values were determined from dose-response curves (see Supplementary Table S3). Data are expressed as mean ± SD from three independent experiments (n = 3). (1 picture or pasted object on this page, not shown here) page 11: Supporting information Calculated IC50 values of tested NO2FA derivatives (Table S3) Table S 3. Calculated IC50 values of tested NO2FA derivatives. IC 21% O2 4% O2 1% O2 50 Value SEM Value SEM Value SEM 10-NO2OA 6.28 0.19 5.74 0.20 8.19 0.21 9-NO2OA 9.47 0.57 7.75 0.54 6.93 0.32 10-NO2LA 11.78 0.41 11.17 0.26 13.79 1.02 9-NO2cLA 18.03 1.96 17.19 2.26 14.31 1.82 10-NO2SA ≈100 >100 >100 IC₅₀ values were derived from dose-response curves using four-parameter logistic regression across different oxygen culture conditions. Data are presented as mean and SEM values from three independent experiments (n = 3). The IC₅₀ values calculated for cultures in 21% oxygen indicate an increasing cytotoxic potential in the order: 10-NO₂OA > 9-NO₂OA > 10-NO₂LA > 9-NO₂cLA. […] In 1% oxygen, the order of cytotoxic potential shifted slightly to 9-NO₂OA > 10-NO₂OA > 10-NO₂LA > 9-NO₂cLA. However, differences in IC₅₀ values across the oxygen conditions for each NO₂FA derivative ranged from ca. 1 to 3 µM. […]

In general, IC50 refers to the concentration that gives 50% inhibition. Take `CCCCCCCC/C=C(\CCCCCCCC(=O)O)[N+](=O)[O-]` [9-NO2OA, (9E)-9-Nitro-oleic Acid]: the IC50 at 24 h by setting is: (1% O2) 6.93 ± 0.32 µM; (4% O2) 7.75 ± 0.54 µM; (21% O2) 9.47 ± 0.57 µM.

`CCCCCC/C=C/C=C(\CCCCCCCC(=O)O)[N+](=O)[O-]` [9-NO2cLA, (9E,11E)-9-Nitro Conjugated Linoleic Acid]: the IC50 at 24 h is, setting by setting: (1% O2) 14.3 ± 1.82 µM; (4% O2) 17.2 ± 2.26 µM; (21% O2) 18 ± 1.96 µM.

Turning to `CCCCC/C=C\C/C(=C\CCCCCCCC(=O)O)[N+](=O)[O-]` [10-NO2LA, (9E,12Z)-10-Nitro Linoleic Acid], the IC50 at 24 h runs as follows: (1% O2) 13.8 ± 1.02 µM; (4% O2) 11.2 ± 0.26 µM; (21% O2) 11.8 ± 0.41 µM.

With `CCCCCCCC/C(=C\CCCCCCCC(=O)O)[N+](=O)[O-]` [10-NO2OA, (9E)-10-Nitro-oleic Acid], the IC50 at 24 h by setting is: (1% O2) 8.19 ± 0.21 µM; (4% O2) 5.74 ± 0.2 µM; (21% O2) 6.28 ± 0.19 µM.

`CCCCCCCCC(CCCCCCCCC(=O)O)[N+](=O)[O-]` (stereo not shown) [10-NO2SA, 10-Nitro Stearic acid] returned an IC50 at 24 h (1% O2) above 100 µM; an IC50 at 24 h (4% O2) above 100 µM; an IC50 at 24 h (21% O2) of around 100 µM; an IC50 at 24 h (under all three oxygen conditions (21, 4, 1%)) of at least 100 µM.
